According to article PMC10876879, “Sustained silencing peanut allergy by xanthopurpurin is associated with suppression of peripheral and bone marrow IgE-producing B cell” (Frontiers in Immunology, 2024):
Like-named read-outs stand apart in the source and are kept apart here.

Experiments:
IgE production [1] = test: IgE production in vitro, other R. cordifolia compounds (data not shown); format: cell-based
IgE production [2] = test: IgE production in vivo, other R. cordifolia compounds (data not shown)
IgE production [3] = conditions: cited from earlier work
[4] = design: method as in PMID 28208101; conditions: cited from earlier work
PN-allergic mice = conditions: oral berberine alone; cited from earlier work
IgE = system: IgE; design: method as in PMID 26185589; conditions: cited from earlier work

1,3-dihydroxy-2-ethoxymethyl-9,10 anthraquinone [alizarin]
IgE production in vitro (IgE production [1]): inhibited IgE production only in vitro | IgE production in vivo (IgE production [2]): failed in vivo

COc1ccc2cc3[n+](cc2c1OC)CCc1cc2c(cc1-3)OCO2 [berberine]
IgE production in vitro (IgE production [3]): significantly inhibited the IgE production | Bioavailability [4]: poor | PN-specific IgE levels (PN-allergic mice): did not reduce PN-specific IgE levels | Protection from anaphylaxis (PN-allergic mice): failed to protect PN-allergic mice from anaphylaxis

O=C1c2ccccc2C(=O)c2c(O)c(O)cc(O)c21 [purpurin, 1,2,4-trihydroxyanthraquinone]
IgE production in vitro (IgE production [1]): inhibited IgE production only in vitro | IgE production in vivo (IgE production [2]): failed in vivo

omalizumab: anti-IgE therapy, neutralizes free serum IgE
Anaphylactic reactions during oral immunotherapy (OIT) (IgE): greatly reduce anaphylactic reactions
